This is an account of results in EP4741386A1 (Jiangsu Yahong Meditech Co., Ltd., priority 2023, dated 2025).

Assay [1] deals with T1, Recombinant human His6-USP1/His6-UAF1 complex protein (Homo sapiens, UniProt O94782).
T1 construct: His6; purchased R&D E-568-050
Nature of the assay: In vitro inhibitory activity against USP1 (Ubiquitin Rhodamine 110 fluorescence detection, 384-well plate). The format is biochemical. To be noted: Ub-Rho substrate, 1 hour pre-incubation, read after 30 minutes. Summed up:
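Fluorescence assay measuring inhibition of recombinant human His6-USP1/His6-UAF1 complex with Ubiquitin-Rhodamine 110 substrate. Compounds held as 50 mM stocks in 100% DMSO and dispensed by acoustic transfer into modified Tris assay buffer.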

The next assay concerns MDA-MB-436. Nature of the assay: CTG experiment for cell viability (CellTiter-Glo, 96-well plate, 7 days). The format is cell-based. As to conditions: Homo sapiens, MDA-MB-436, 168 h, MDA-MB-436 cells, 7 days culture with compound. Summed up: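 MDA-MB-436 cells in DMEM were plated in 96-well format, treated with compounds, and cultured 7 days at 37°C. After removing the medium, cells were given PBS plus CellTiter-Glo reagent, incubated 10 min at room temperature, and luminescence was read. Curves were fitted as for the enzyme assay.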
In general terms: In ATP-based viability assays light output follows the ATP content of the culture.

T1 sequence (O94782 whole entry): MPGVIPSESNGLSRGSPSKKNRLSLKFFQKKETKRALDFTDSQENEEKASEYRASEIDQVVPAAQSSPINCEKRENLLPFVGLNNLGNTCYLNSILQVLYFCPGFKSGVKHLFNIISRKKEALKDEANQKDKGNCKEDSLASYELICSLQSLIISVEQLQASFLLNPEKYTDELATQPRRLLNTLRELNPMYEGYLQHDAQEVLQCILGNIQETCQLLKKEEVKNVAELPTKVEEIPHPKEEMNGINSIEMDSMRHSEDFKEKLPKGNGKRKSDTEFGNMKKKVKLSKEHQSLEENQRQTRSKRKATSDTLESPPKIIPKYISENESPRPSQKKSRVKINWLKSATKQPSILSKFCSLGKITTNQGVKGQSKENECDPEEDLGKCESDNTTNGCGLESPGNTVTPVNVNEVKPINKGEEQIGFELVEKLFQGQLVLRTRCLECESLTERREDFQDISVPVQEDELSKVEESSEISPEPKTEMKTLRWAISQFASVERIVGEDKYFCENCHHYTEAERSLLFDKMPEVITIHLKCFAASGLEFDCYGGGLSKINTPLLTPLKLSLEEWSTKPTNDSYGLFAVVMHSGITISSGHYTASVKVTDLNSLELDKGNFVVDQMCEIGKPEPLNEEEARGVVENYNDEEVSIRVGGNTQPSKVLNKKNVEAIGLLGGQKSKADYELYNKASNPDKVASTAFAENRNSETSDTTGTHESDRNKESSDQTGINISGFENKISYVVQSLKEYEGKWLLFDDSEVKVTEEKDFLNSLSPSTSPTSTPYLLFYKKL
T1 sequence (Q8TAF3 whole entry partner): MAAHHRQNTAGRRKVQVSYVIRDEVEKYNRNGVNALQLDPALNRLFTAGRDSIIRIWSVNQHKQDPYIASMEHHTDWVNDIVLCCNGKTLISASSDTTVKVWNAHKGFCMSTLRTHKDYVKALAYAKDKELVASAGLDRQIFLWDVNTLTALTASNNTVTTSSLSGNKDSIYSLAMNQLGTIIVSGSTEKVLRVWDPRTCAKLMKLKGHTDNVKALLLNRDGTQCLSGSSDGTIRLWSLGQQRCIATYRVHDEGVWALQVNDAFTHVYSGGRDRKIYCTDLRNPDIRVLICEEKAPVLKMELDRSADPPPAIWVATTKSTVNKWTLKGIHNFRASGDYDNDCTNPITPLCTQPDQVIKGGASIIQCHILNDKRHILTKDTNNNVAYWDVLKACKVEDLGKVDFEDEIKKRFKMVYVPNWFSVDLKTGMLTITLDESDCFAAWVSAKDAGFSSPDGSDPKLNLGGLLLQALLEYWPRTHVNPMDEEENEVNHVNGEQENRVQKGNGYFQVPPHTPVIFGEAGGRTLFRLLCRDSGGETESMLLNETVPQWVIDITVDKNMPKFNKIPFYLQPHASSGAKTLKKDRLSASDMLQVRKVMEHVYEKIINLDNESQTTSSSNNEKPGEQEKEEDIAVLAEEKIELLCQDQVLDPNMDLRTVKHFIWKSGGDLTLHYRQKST

In general, IC50 refers to the concentration that gives 50% inhibition. `COc1ncnc(C2CC2)c1-c1ncc(OC(F)F)c(NCc2ccc(-n3nc(C(F)(F)F)cc3C)cc2)n1` [Example 135, 4'-Cyclopropyl-5-(difluoromethoxy)-6'-methoxy-N-(4-(5-methyl-3-(trifluoromethyl)-1H-pyrazol-1-yl)benzyl)-[2,5'-bipyrimidin]-4-amine]: the figures for the half-inhibitory concentration (IC50) (in assay [1]; with MDA-MB-436) were 0.0032 µM and 0.0158 µM, respectively.
On to `COc1cc(-c2nc(C(F)(F)F)cn2C)ccc1CNc1nc(-c2c(OC)ncnc2C2CC2)ncc1OC(F)F` [Example 136, 4'-Cyclopropyl-5-(difluoromethoxy)-6'-methoxy-N-(2-methoxy-4-(1-methyl-4-(trifluoromethyl)-1H-imidazol-2-yl)benzyl)-[2,5'-bipyrimidin]-4-amine], for which the figures for the IC50 (in assay [1]; in the assay with MDA-MB-436) were 0.017 µM and 0.0249 µM, respectively.
Consider `COc1ncnc(C2CC2)c1-c1ncc(CO)c(NCc2ccc(-c3nc(C(F)(F)F)cn3C(C)C)cc2)n1` [Example 137, (4'-Cyclopropyl-4-((4-(1-isopropyl-4-(trifluoromethyl)-1H-imidazol-2-yl)benzyl)amino)-6'-methoxy-[2,5'-bipyrimidin]-5-yl)methanol], for which the IC50 in assay [1] was determined as 0.024 µM; in the assay on MDA-MB-436 it was 0.216 µM.
In the same order, the values of `COCc1cnc(-c2c(OC)ncnc2C2CC2)nc1N(C)Cc1ccc(-c2nc(C(F)(F)F)cn2C(C)C)cc1` [Example 138, 4'-Cyclopropyl-N-(4-(1-isopropyl-4-(trifluoromethyl)-1H-imidazol-2-yl)benzyl)-6'-methoxy-5-(methoxymethyl)-N-methyl-[2,5'-bipyrimidin]-4-amine] are 0.009 µM and 0.0124 µM.
Take `C#CCN(Cc1ccc(-c2nc(C(F)(F)F)cn2C)cc1)c1nc(-c2c(OC)ncnc2C2CC2)ncc1OC` [Example 139, 4'-Cyclopropyl-5,6'-dimethoxy-N-(4-(1-methyl-4-(trifluoromethyl)-1H-imidazol-2-yl)benzyl)-N-(prop-2-yn-1-yl)-[2,5'-bipyrimidin]-4-amine]: the IC50 in assay [1] is 0.0052 µM; in the assay on MDA-MB-436, 0.005 µM.
With `COc1cnc(-c2c(OC)ncnc2C2CC2)nc1N(Cc1ccc(-c2nc(C(F)(F)F)cn2C)cc1)C1CC1` [Example 141, N,4'-Dicyclopropyl-5,6'-dimethoxy-N-(4-(1-methyl-4-(trifluoromethyl)-1H-imidazol-2-yl)benzyl)-[2,5'-bipyrimidin]-4-amine], the IC50 in assay [1] amounted to 0.0095 µM; with MDA-MB-436, 0.0767 µM.
On to `COc1cnc(-c2c(OC)ncnc2C2CC2)nc1N(Cc1ccc(-c2nc(C(F)(F)F)cn2C)cc1)OC` [Example 142, N-(4'-Cyclopropyl-5,6'-dimethoxy-[2,5'-bipyrimidin]-4-yl)-O-methyl-N-(4-(1-methyl-4-(trifluoromethyl)-1H-imidazol-2-yl)benzyl)hydroxylamine], for which the IC50 was found to be 0.025 µM in assay [1] and 0.05 µM with MDA-MB-436.
For `COc1cnc(-c2cccc3c2N(C)CC3)nc1NCc1ccc(-c2nc(C(F)(F)F)cn2C)cc1` [Example 145, 5-Methoxy-N-(4-(1-methyl-4-(trifluoromethyl)-1H-imidazol-2-yl)benzyl)-2-(1-methylindolin-7-yl)pyrimidin-4-amine], the figures for the IC50 (in assay [1]; in the assay on MDA-MB-436) were 0.019 µM and 0.731 µM, respectively.
In the same order, the values of `COc1cnc(-c2cccnc2C2CC2)nc1N(C)CC1CCN(c2ccccn2)CC1` [Example 151, 2-(2-Cyclopropylpyridin-3-yl)-5-methoxy-N-methyl-N-((1-(pyridin-2-yl)piperidin-4-yl)methyl)pyrimidin-4-amine] are 0.072 µM and 0.0584 µM.
For the molecule `COc1cnc(-c2cccnc2C2CC2)nc1NCC1CCN(c2nc(C(F)(F)F)cn2C)CC1` [Example 152, 2-(2-Cyclopropylpyridin-3-yl)-5-methoxy-N-((1-(1-methyl-4-(trifluoromethyl)-1H-imidazol-2-yl)piperidin-4-yl)methyl)pyrimidin-4-amine], the IC50 in assay [1] was found to be 0.0075 µM; with MDA-MB-436, 0.0644 µM.
On the same counts, the results for `COc1cnc(-c2cccnc2C2CC2)nc1NCc1ccc(-c2nc(C(F)(F)F)cn2C)cc1` [Example 153, 2-(2-Cyclopropylpyridin-3-yl)-5-methoxy-N-(4-(1-methyl-4-(trifluoromethyl)-1H-imidazol-2-yl)benzyl)pyrimidin-4-amine] are 0.0034 µM and 0.0254 µM.
In the case of `COc1cnc(-c2cccnc2C2CC2)nc1NCc1ccc(-n2nc(C(F)(F)F)cc2C)cc1` [Example 154, 2-(2-Cyclopropylpyridin-3-yl)-5-methoxy-N-(4-(5-methyl-3-(trifluoromethyl)-1H-pyrazol-1-yl)benzyl)pyrimidin-4-amine], the concentration for half-maximal inhibition (IC50) in assay [1] was determined as 0.0062 µM; in the assay on MDA-MB-436 it was 0.0073 µM.
On the same counts, the results for `c1ccc(-c2ccc(CNc3nc(-c4cccnc4C4CC4)nc4ccoc34)cc2)nc1` [Example 155, 2-(2-Cyclopropylpyridin-3-yl)-N-(4-(pyridin-2-yl)benzyl)furo[3,2-d]pyrimidin-4-amine] are 0.012 µM and 0.0857 µM.
Turning to `COc1cnc(-c2cccnc2C(C)C)nc1NCc1ccc(-c2nc(C(F)(F)F)cn2C)cc1` [Example 157, 2-(2-Isopropylpyridin-3-yl)-5-methoxy-N-(4-(1-methyl-4-(trifluoromethyl)-1H-imidazol-2-yl)benzyl)pyrimidin-4-amine], the IC50 in assay [1] is 0.0029 µM; in the assay on MDA-MB-436, 0.0233 µM.
Regarding `COc1cnc(-c2cccnc2C(C)C)nc1NCc1ccc(-n2nc(C(F)(F)F)cc2C)cc1` [Example 158, 2-(2-Isopropylpyridin-3-yl)-5-methoxy-N-(4-(5-methyl-3-(trifluoromethyl)-1H-pyrazol-1-yl)benzyl)pyrimidin-4-amine], the IC50 was found to be 0.0021 µM in assay [1] and 0.0123 µM in the assay with MDA-MB-436.
In the case of `COc1cnc(-c2ccccc2N(C)C)nc1NCc1ccc(-c2nc(C(F)(F)F)cn2C)cc1` [Example 159, 2-(2-(Dimethylamino)phenyl)-5-methoxy-N-(4-(1-methyl-4-(trifluoromethyl)-1H-imidazol-2-yl)benzyl)pyrimidin-4-amine], the IC50 in assay [1] stood at 0.0017 µM; in the assay on MDA-MB-436, 0.0394 µM.
As for `COc1cnc(-c2ccccc2N(C)C)nc1NCc1ccc(-n2nc(C(F)(F)F)cc2C)cc1` [Example 160, 2-(2-(Dimethylamino)phenyl)-5-methoxy-N-(4-(5-methyl-3-(trifluoromethyl)-1H-pyrazol-1-yl)benzyl)pyrimidin-4-amine], the concentration for half-maximal inhibition (IC50) in assay [1] came to 0.0036 µM; in the assay on MDA-MB-436 it was 0.121 µM.
With `COc1cnc(-c2c(Cl)cnn2C(C)C)nc1N(C)CC1CCN(c2ccccn2)CC1` [Example 161, 2-(4-Chloro-1-isopropyl-1H-pyrazol-5-yl)-5-methoxy-N-methyl-N-((1-(pyridin-2-yl)piperidin-4-yl)methyl)pyrimidin-4-amine], the IC50 in assay [1] came out at 0.006 µM; in the assay with MDA-MB-436 it was 0.537 µM.
Regarding `COc1cnc(-c2c(Cl)cnn2C(C)C)nc1NCc1ccc(-c2ccccn2)cc1` [Example 162, 2-(4-Chloro-1-isopropyl-1H-pyrazol-5-yl)-5-methoxy-N-(4-(pyridin-2-yl)benzyl)pyrimidin-4-amine], the half-maximal inhibitory concentration (IC50) in assay [1] stood at 0.0039 µM; in the assay with MDA-MB-436, 0.0775 µM.
For the molecule `COc1cnc(-c2c(Cl)cnn2C(C)C)nc1NCC1CCN(c2nc(C(F)(F)F)cn2C)CC1` [Example 163, 2-(4-Chloro-1-isopropyl-1H-pyrazol-5-yl)-5-methoxy-N-((1-(1-methyl-4-(trifluoromethyl)-1H-imidazol-2-yl)piperidin-4-yl)methyl)pyrimidin-4-amine], the values for the IC50 (in assay [1]; in the assay on MDA-MB-436) were 0.0023 µM and 0.0135 µM, respectively.
